Results as given in publication PMC11847541, “Liver fatty acid binding protein FABP1 transfers substrates to cytochrome P450 4A11 for catalysis” (The Journal of Biological Chemistry, 2025).
Where two headings read alike, the source gives them in different places. Blank lines part the entries; values can stand above or below the compound they belong to.

Tests used:
FABP3 = molecular target: FABP3; set-up: method as in PMID 11170430; details: human heart FABP (FABP3); cited from earlier work
FABP1 [1] = molecular target: T1, FABP1 (Homo sapiens, UniProt P07148); experiment: DAUDA displacement fluorescence titrations of DAUDA–FABP1 with fatty acids, fit in KinTek Explorer; assay type: binding
T1 construct: GST (N, cleaved yes); made in house; host or cells: Escherichia coli DH5α
T1 sequence (P07148 with tags, fused parts or gaps): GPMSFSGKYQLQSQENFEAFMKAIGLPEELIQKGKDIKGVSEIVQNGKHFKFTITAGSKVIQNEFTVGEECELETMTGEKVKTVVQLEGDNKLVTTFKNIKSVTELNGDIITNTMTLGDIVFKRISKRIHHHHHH
Text: The FABP–DAUDA system was used to screen saturated fatty acids (C12 to C18) for binding to FABP, and the Kd values were estimated in competition with the fluorophore (using its known Kd) with the kinetic modeling software KinTek Explorer. The general model is shown in Fig. 5A, where the substrate is competed against the fluorescent DAUDA–FABP1 complex for binding, yielding a ternary DAUDA–FABP1–substrate complex that is accompanied by an attenuation in fluorescence.
Figure 5 Fluorescence titrations of DAUDA–FABP1 with fatty acids (“forward” titrations).A, model of all binding equilibria accounted for in the DAUDA displacement assays. In the fluorescence assays (λex = 335 nm), DAUDA (D) binds to FABP1 (F) to form a fluorescent (indicated with yellow flash) complex (FD), with which a lipid (S) is then competed against for binding. The binding of S attenuates the fluorescence (denoted with a smaller yellow flash) and forms a ternary complex (FDS). High concentrations of S may completely displace D to form FSS, a spectroscopically silent complex. Using this method, fluorescence titrations were carried out with the fatty acids (B) laurate, (C) myristate, (D) palmitate, (E) 16-hydroxypalmitate, and (F) stearate. Fluorescence at the emission maximum (482 nm) was monitored (as in Fig. 4) and normalized to the starting fluorescence (i.e., the FD complex prior to the addition of S). Each data point corresponds to one independent replicate. DAUDA, 11-dansylaminoundecanoic acid; FABP1, fatty acid binding protein.
For the titrations with lipids, solutions of FABP1 (0.5 μM) and DAUDA (0.25 μM) were prepared such that the fluorescent species was not present in excess ([75]). A baseline was recorded with phosphate buffer, and a starting (basis) spectrum was recorded of the FABP–DAUDA complex (1 ml). The lipid solutions were gradually added to the cuvette with gentle mixing (pipetting up and down ∼7× with a pipette tip), and spectra were recorded (Fig. S12A). Control titrations were also performed the same day with solvent alone (Fig. S12B) as a normalizing factor for the lipid titrations as fluorescence attenuation was also observed to a much lesser degree as a solvent effect (Fig. S12C, D). […] The data were processed such that within the lipid titration and the solvent titration, the F482 values were normalized to the starting value (the initial FABP1–DAUDA complex with nothing added, set to 100%). The relative fluorescence of the lipid titration was then normalized to the relative fluorescence of the solvent titration to adjust for fluorescence attenuation observed in the solvent titration (presumably from altering the fluorophore environment). Thus, the data were processed according to y=(F482/F482(initial))lipid/(F482/F482(initial))solvent , and the resulting values were plotted as a function of lipid concentration (Fig. S12E). The curve was imported into KinTek Explorer ([76]) and was fit to a kinetic model (Fig. S13) to determine the Kd values (Table 1). Within the KinTek software, all fluorescent species required fluorescence scaling factors to convert signal to concentration. Scaling factors for the FABP–DAUDA complex, FABP–DAUDA–lipid complex, and DAUDA alone were 460, 92, and 8, respectively.
Figure S12. Data processing for FABP1 titration with palmitate. Fluorescence spectrum of increasing additions of (A) palmitate (0-2 µM, added in C2H5OH) and (B) C2H5OH to a mixture of DAUDA (0.25 µM) and FABP1 (0.5 µM), performed as described in the Experimental Methods (see “Titrations of FABP1 with lipids, DAUDA”). C, fluorescence values at 482 nm (F482) from the titrations presented in parts A and B are normalized to the starting values (DAUDA-FABP1 complex, no volume added). Data are reported as a function of volume of titrant added to the cuvette (black, C2H5OH alone; red, palmitate in C2H5OH). […]

FABP1 [2] = molecular target: T1, FABP1; details: human FABP1, fluorescence displacement assay; read-out: Kd; cited from earlier work
FABP1 [3] = molecular target: T1, FABP1; set-up: method as in PMID 10852718; details: ADIFAB system; cited from earlier work
FABP1 [4] = molecular target: FABP1; set-up: method as in PMID 8940102; details: rat protein, cited from earlier work
FABP1 [5] = molecular target: FABP1; set-up: method as in PMID 8541331; details: bovine protein, cited from earlier work
[6] = lipid binding to DAUDA-bound FABP1 (DAUDA displacement), read-out: Kd, FD + S ↔ FDS
[7] = lipid binding to apo-FABP1, estimated via kinetic modeling, read-out: Kd, F + S ↔ FS
[8] = lipid binding to ternary complex FDS (full displacement of DAUDA), low-affinity site, read-out: Kd, FDS + S ↔ FSS + D
[9] = high-affinity site, read-out: Kd,1
[10] = low-affinity site, read-out: Kd,2

SMILES: O=C(O)CCC/C=C\C/C=C\C/C=C\C/C=C\CCCCCO [20-HETE, 20-hydroxyeicosatetraenoic acid]
- Kd (FABP3): ~0.44 µM

- % Fluorescence (FABP1 [1]; lipid 1 µM, FABP1 0.5 µM, DAUDA 0.25 µM, F482 normalized): 94.95%
- % Fluorescence (FABP1 [1]; lipid 2 µM, FABP1 0.5 µM, DAUDA 0.25 µM, F482 normalized): 89.77%
- % Fluorescence (FABP1 [1]; lipid 3.5 µM, FABP1 0.5 µM, DAUDA 0.25 µM, F482 normalized): 89.03%
- % Fluorescence (FABP1 [1]; lipid 5 µM, FABP1 0.5 µM, DAUDA 0.25 µM, F482 normalized): 85.89%
- % Fluorescence (FABP1 [1]; lipid 7.5 µM, FABP1 0.5 µM, DAUDA 0.25 µM, F482 normalized): 85.69%
- % Fluorescence (FABP1 [1]; lipid 10 µM, FABP1 0.5 µM, DAUDA 0.25 µM, F482 normalized): 75.3%
- % Fluorescence (FABP1 [1]; lipid 20 µM, FABP1 0.5 µM, DAUDA 0.25 µM, F482 normalized): 57.47%
- % Fluorescence (FABP1 [1]; lipid 35 µM, FABP1 0.5 µM, DAUDA 0.25 µM, F482 normalized): 47.27%
- % Fluorescence (FABP1 [1]; lipid 50 µM, FABP1 0.5 µM, DAUDA 0.25 µM, F482 normalized): 41.27%
- % Fluorescence (FABP1 [1]; lipid 75 µM, FABP1 0.5 µM, DAUDA 0.25 µM, F482 normalized): 35.15%
- % Fluorescence (FABP1 [1]; lipid 100 µM, FABP1 0.5 µM, DAUDA 0.25 µM, F482 normalized): 31.33%
- % Fluorescence (FABP1 [1]; lipid 125 µM, FABP1 0.5 µM, DAUDA 0.25 µM, F482 normalized): 28.58%
- % Fluorescence (FABP1 [1]; lipid 150 µM, FABP1 0.5 µM, DAUDA 0.25 µM, F482 normalized): 29.65%
- % Fluorescence (FABP1 [1]; lipid 200 µM, FABP1 0.5 µM, DAUDA 0.25 µM, F482 normalized): 27.61%
- % Fluorescence (FABP1 [1]; lipid 300 µM, FABP1 0.5 µM, DAUDA 0.25 µM, F482 normalized): 25.74%
- % Fluorescence (FABP1 [1]; lipid 400 µM, FABP1 0.5 µM, DAUDA 0.25 µM, F482 normalized): 23.15%
- koff, F + S ↔ FS (FABP1 [1]; lipid (S) binding to apo-FABP1 (F), kinetic modeling, on-rate 9.0 × 10^7 M^−1 s^−1): 2700 s⁻¹
- Kd (FABP1 [1]; [6]): 18 µM
- koff, FD + S ↔ FDS (FABP1 [1]; lipid binding to DAUDA-bound FABP1 (FD), on-rate 2.3 × 10^7 M^−1 s^−1): 410 s⁻¹
- Kd (FABP1 [1]; [7]): 30 µM
- Kd (FABP1 [1]; [8]): > 1000 µM
SMILES: CCCCCCCCCCCC(=O)O [Laurate (C12), laurate]

SMILES: CCCCCCCCCCCCCC(=O)O [Myristate (C14), myristate]
- Kd (FABP1 [1]; [6]): 0.86 µM
- Kd (FABP1 [1]; [7]): 2.6 µM
- Kd (FABP1 [1]; [8]): 43 µM
- remaining activity at 0.01 µM (FABP1 [1]; read-out: % Fluorescence): 98.3%
- remaining activity at 0.03 µM (FABP1 [1]; read-out: % Fluorescence): 99.1%
- remaining activity at 0.06 µM (FABP1 [1]; read-out: % Fluorescence): 98.2%
- remaining activity at 0.1 µM (FABP1 [1]; read-out: % Fluorescence): 97.3%
- remaining activity at 0.3 µM (FABP1 [1]; read-out: % Fluorescence): 92.9%
- remaining activity at 0.6 µM (FABP1 [1]; read-out: % Fluorescence): 81%
- remaining activity at 1 µM (FABP1 [1]; read-out: % Fluorescence): 71.9%
- remaining activity at 3 µM (FABP1 [1]; read-out: % Fluorescence): 42.2%
- remaining activity at 6 µM (FABP1 [1]; read-out: % Fluorescence): 25.9%
- remaining activity at 10 µM (FABP1 [1]; read-out: % Fluorescence): 18.2%
- remaining activity at 30 µM (FABP1 [1]; read-out: % Fluorescence): 13.1%
- koff (FABP1 [1]; read-out: koff, F + S ↔ FS): 240 s⁻¹
- koff (FABP1 [1]; read-out: koff, FD + S ↔ FDS): 20 s⁻¹
- koff (FABP1 [1]; read-out: koff, FDS + S ↔ FSS + D): 980 s⁻¹

- remaining activity at 0.01 µM (FABP1 [1]; lipid 0.01 µM, FABP1 0.5 µM, DAUDA 0.25 µM, F482 normalized, read-out: % Fluorescence): 92.3%
- remaining activity at 0.025 µM (FABP1 [1]; lipid 0.025 µM, FABP1 0.5 µM, DAUDA 0.25 µM, F482 normalized): 92.5%
- remaining activity at 0.05 µM (FABP1 [1]; lipid 0.05 µM, FABP1 0.5 µM, DAUDA 0.25 µM, F482 normalized): 87.6%
- remaining activity at 0.075 µM (FABP1 [1]; lipid 0.075 µM, FABP1 0.5 µM, DAUDA 0.25 µM, F482 normalized): 81.3%
- remaining activity at 0.1 µM (FABP1 [1]; lipid 0.1 µM, FABP1 0.5 µM, DAUDA 0.25 µM, F482 normalized, read-out: % Fluorescence): 78.3%
- remaining activity at 0.15 µM (FABP1 [1]; lipid 0.15 µM, FABP1 0.5 µM, DAUDA 0.25 µM, F482 normalized): 69.4%
- remaining activity at 0.2 µM (FABP1 [1]; lipid 0.2 µM, FABP1 0.5 µM, DAUDA 0.25 µM, F482 normalized): 61%
- remaining activity at 0.25 µM (FABP1 [1]; lipid 0.25 µM, FABP1 0.5 µM, DAUDA 0.25 µM, F482 normalized): 54.2%
- remaining activity at 0.35 µM (FABP1 [1]; lipid 0.35 µM, FABP1 0.5 µM, DAUDA 0.25 µM, F482 normalized): 44.4%
- remaining activity at 0.45 µM (FABP1 [1]; lipid 0.45 µM, FABP1 0.5 µM, DAUDA 0.25 µM, F482 normalized): 37.1%
- remaining activity at 0.6 µM (FABP1 [1]; lipid 0.6 µM, FABP1 0.5 µM, DAUDA 0.25 µM, F482 normalized, read-out: % Fluorescence): 31.3%
- remaining activity at 0.9 µM (FABP1 [1]; lipid 0.9 µM, FABP1 0.5 µM, DAUDA 0.25 µM, F482 normalized): 24.2%
- remaining activity at 1.15 µM (FABP1 [1]; lipid 1.15 µM, FABP1 0.5 µM, DAUDA 0.25 µM, F482 normalized): 24.1%
- remaining activity at 1.4 µM (FABP1 [1]; lipid 1.4 µM, FABP1 0.5 µM, DAUDA 0.25 µM, F482 normalized): 23.6%
- remaining activity at 1.9 µM (FABP1 [1]; lipid 1.9 µM, FABP1 0.5 µM, DAUDA 0.25 µM, F482 normalized): 23.3%
- koff (FABP1 [1]; lipid (S) binding to apo-FABP1 (F), kinetic modeling, on-rate 9.0 × 10^7 M^−1 s^−1, read-out: koff, F + S ↔ FS): 6.2 s⁻¹
- Kd (FABP1 [1]; [6]): 0.021 µM
- koff (FABP1 [1]; lipid binding to DAUDA-bound FABP1 (FD), on-rate 2.3 × 10^7 M^−1 s^−1, read-out: koff, FD + S ↔ FDS): 0.48 s⁻¹
- Kd (FABP1 [1]; [7]): 0.069 µM
- Kd (FABP1 [1]; [8]): 34 µM
- koff (FABP1 [1]; lipid binding to ternary complex FDS (full displacement of DAUDA), read-out: koff, FDS + S ↔ FSS + D): 770 s⁻¹
SMILES: CCCCCCCCCCCCCCCCCC(=O)O [Stearate (C18), stearate]
- Kd (FABP1 [2]): 0.029 ± 0.002 µM
- Kd (FABP1 [3]): 0.023 µM

SMILES: CCCCC/C=C\C/C=C\C/C=C\C/C=C\CCCC(=O)O [arachidonate]
- Kd (FABP3): ~0.05 µM

SMILES: CCCCC/C=C\C/C=C\CCCCCCCC(=O)O [linoleate]
- Kd (FABP1 [4]; [9]): ~0.01 µM
- Kd (FABP1 [4]; [10]): ~0.2 µM

SMILES: CCCCCCCC/C=C\CCCCCCCC(=O)O [oleate]
- Kd (FABP1 [5]; [9]): 0.26 µM
- Kd (FABP1 [5]; [10]): > 5 µM
